Source: PubChem BioAssay (NCI)
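Where inhibition never reached the appropriate level, the endpoint shown equals the highest concentration tested. Otherwise, values were interpolated linearly from a five-concentration, 48-hour dose response in 96-well plates. TGI denotes the concentration required for complete inhibition of growth.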

How the values were obtained:
Assay in all cases: NCI tumour cell line growth inhibition, 48 h
786-0 renal = test system: 786-0 renal
A549 NSCLC = test system: A549 NSCLC
ACHN renal = test system: ACHN renal
CAKI-1 renal = test system: CAKI-1 renal
CCRF-CEM leukemia = test system: CCRF-CEM leukemia
COLO 205 colon = test system: COLO 205 colon
DLD-1 colon = test system: DLD-1 colon
DMS 114 small cell lung = test system: DMS 114 small cell lung
DMS 273 small cell lung = test system: DMS 273 small cell lung
EKVX NSCLC = test system: EKVX NSCLC
HCC-2998 colon = test system: HCC-2998 colon
HCT-15 colon = test system: HCT-15 colon
HL-60(TB) leukemia = test system: HL-60(TB) leukemia
HOP-18 NSCLC = test system: HOP-18 NSCLC
HOP-62 NSCLC = test system: HOP-62 NSCLC
HT29 colon = test system: HT29 colon
IGROV1 ovarian = test system: IGROV1 ovarian
K-562 leukemia = test system: K-562 leukemia
KM12 colon = test system: KM12 colon
KM20L2 colon = test system: KM20L2 colon
LOX IMVI melanoma = test system: LOX IMVI melanoma
LXFL 529 NSCLC = test system: LXFL 529 NSCLC
M14 melanoma = test system: M14 melanoma
M19-MEL melanoma = test system: M19-MEL melanoma
MALME-3M melanoma = test system: MALME-3M melanoma
MOLT-4 leukemia = test system: MOLT-4 leukemia
NCI-H226 lung = test system: NCI-H226 lung
NCI-H23 lung = test system: NCI-H23 lung
NCI-H460 lung = test system: NCI-H460 lung
NCI-H522 lung = test system: NCI-H522 lung
OVCAR-3 ovarian = test system: OVCAR-3 ovarian
OVCAR-4 ovarian = test system: OVCAR-4 ovarian
OVCAR-5 ovarian = test system: OVCAR-5 ovarian
OVCAR-8 ovarian = test system: OVCAR-8 ovarian
RPMI-8226 leukemia = test system: RPMI-8226 leukemia
RXF 393 renal = test system: RXF 393 renal
RXF-631 renal = test system: RXF-631 renal
SF-268 CNS = test system: SF-268 CNS
SF-295 CNS = test system: SF-295 CNS
SF-539 CNS = test system: SF-539 CNS
SK-MEL-2 melanoma = test system: SK-MEL-2 melanoma
SK-MEL-28 melanoma = test system: SK-MEL-28 melanoma
SK-MEL-5 melanoma = test system: SK-MEL-5 melanoma
SK-OV-3 ovarian = test system: SK-OV-3 ovarian
SN12C renal = test system: SN12C renal
SNB-19 CNS = test system: SNB-19 CNS
SNB-75 CNS = test system: SNB-75 CNS
SNB-78 CNS = test system: SNB-78 CNS
SR leukemia = test system: SR leukemia
SW-620 colon = test system: SW-620 colon
TK-10 renal = test system: TK-10 renal
U251 CNS = test system: U251 CNS
UACC-257 melanoma = test system: UACC-257 melanoma
UACC-62 melanoma = test system: UACC-62 melanoma
UO-31 renal = test system: UO-31 renal
XF 498 CNS = test system: XF 498 CNS

Measured: TGI

COc1ccccc1-n1c(NN)nc2ccc(Br)cc2c1=O
43 µM: SK-MEL-5 melanoma
93.1 µM: UO-31 renal
79.5 µM: TK-10 renal
72.1 µM: UACC-257 melanoma
92.1 µM: XF 498 CNS
> 100 µM: 786-0 renal | A549 NSCLC | ACHN renal | CAKI-1 renal | CCRF-CEM leukemia | COLO 205 colon | DLD-1 colon | DMS 114 small cell lung | DMS 273 small cell lung | EKVX NSCLC | HCC-2998 colon | HCT-15 colon | HOP-62 NSCLC | HT29 colon | IGROV1 ovarian | K-562 leukemia | KM12 colon | KM20L2 colon | LOX IMVI melanoma | LXFL 529 NSCLC | M14 melanoma | M19-MEL melanoma | MALME-3M melanoma | MOLT-4 leukemia | NCI-H226 lung | NCI-H23 lung | NCI-H460 lung | OVCAR-3 ovarian | OVCAR-4 ovarian | OVCAR-8 ovarian | RPMI-8226 leukemia | RXF 393 renal | RXF-631 renal | SF-268 CNS | SF-295 CNS | SK-MEL-2 melanoma | SK-MEL-28 melanoma | SN12C renal | SNB-19 CNS | SNB-75 CNS | SNB-78 CNS | SR leukemia | SW-620 colon | U251 CNS | UACC-62 melanoma
63.2 µM: NCI-H522 lung
99.3 µM: SK-OV-3 ovarian
68.8 µM: OVCAR-5 ovarian
84.5 µM: SF-539 CNS
61.5 µM: HOP-18 NSCLC
53.1 µM: HL-60(TB) leukemia
